Assay results published in ChEMBL document CHEMBL4831510, “Novel cannabidiol-carbamate hybrids as selective BuChE inhibitors: Docking-based fragment reassembly for the development of potential therapeutic agents against Alzheimer's disease” (Eur J Med Chem, 2021).
pIC50, pKd: −log10 of the molar value.

Columns and labels:
[1] = Antioxidant activity assessed as DPPH radical scavenging activity at 100 uM incubated for 2 hrs by microplate reader method; type: functional
[2] = molecular target: T1, Cholinesterase (Equus caballus, UniProt P81908)
T1 sequence (P81908 whole entry): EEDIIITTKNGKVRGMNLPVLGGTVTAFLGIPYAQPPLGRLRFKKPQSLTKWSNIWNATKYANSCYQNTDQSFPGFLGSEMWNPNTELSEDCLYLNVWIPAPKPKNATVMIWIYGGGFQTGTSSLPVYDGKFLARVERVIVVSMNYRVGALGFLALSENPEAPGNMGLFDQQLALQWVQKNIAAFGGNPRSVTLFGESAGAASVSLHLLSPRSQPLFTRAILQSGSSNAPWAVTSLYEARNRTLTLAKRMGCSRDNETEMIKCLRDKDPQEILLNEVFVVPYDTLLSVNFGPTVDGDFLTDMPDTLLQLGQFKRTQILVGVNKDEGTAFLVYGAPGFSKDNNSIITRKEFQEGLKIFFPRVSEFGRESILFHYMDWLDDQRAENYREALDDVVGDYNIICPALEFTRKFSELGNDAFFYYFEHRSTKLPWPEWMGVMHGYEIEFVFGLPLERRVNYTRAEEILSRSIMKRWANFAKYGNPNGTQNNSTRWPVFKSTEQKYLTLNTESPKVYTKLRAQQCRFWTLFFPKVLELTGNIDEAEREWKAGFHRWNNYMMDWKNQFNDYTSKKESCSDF
Description: Inhibition of equine serum BuChE using butyrylthiocholine iodide as substrate preincubated with enzyme for 20 mins followed by substrate addition and measured after 20 mins by Ellman's method

[3] = molecular target: Acetylcholinesterase (Electrophorus electricus, UniProt O42275); experiment: Inhibition of electric eel AChE using acetylthiocholine iodide as substrate preincubated with enzyme for 20 mins followed by substrate addition and measured after 20 mins by Ellman's method
Chain of Acetylcholinesterase (Electrophorus electricus, UniProt O42275) (O42275 whole entry): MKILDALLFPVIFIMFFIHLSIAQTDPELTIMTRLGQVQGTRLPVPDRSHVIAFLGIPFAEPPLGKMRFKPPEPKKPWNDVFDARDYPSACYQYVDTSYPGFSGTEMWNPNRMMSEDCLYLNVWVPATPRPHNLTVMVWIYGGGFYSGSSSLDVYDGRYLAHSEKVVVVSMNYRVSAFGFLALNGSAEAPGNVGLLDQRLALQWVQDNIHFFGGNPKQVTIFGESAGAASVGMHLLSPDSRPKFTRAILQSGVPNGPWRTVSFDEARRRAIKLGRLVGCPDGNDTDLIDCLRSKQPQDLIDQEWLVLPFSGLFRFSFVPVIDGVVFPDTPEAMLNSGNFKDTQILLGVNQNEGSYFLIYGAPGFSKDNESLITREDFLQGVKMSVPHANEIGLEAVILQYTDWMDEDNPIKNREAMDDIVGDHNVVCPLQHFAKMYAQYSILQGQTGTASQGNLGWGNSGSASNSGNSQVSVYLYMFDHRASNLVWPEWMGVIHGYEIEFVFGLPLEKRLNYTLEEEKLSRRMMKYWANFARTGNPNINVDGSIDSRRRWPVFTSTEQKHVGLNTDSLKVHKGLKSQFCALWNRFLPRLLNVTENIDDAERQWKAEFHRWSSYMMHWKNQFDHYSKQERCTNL

[4] = molecular target: T2, Acetylcholinesterase (Homo sapiens, UniProt P22303); experiment: Inhibition of human AChE using acetylthiocholine iodide as substrate at 20 uM preincubated with enzyme for 5 mins followed by substrate addition and measured after 5 mins by Ellman's method; settings: time 10.0 min
T2 sequence (P22303 whole entry): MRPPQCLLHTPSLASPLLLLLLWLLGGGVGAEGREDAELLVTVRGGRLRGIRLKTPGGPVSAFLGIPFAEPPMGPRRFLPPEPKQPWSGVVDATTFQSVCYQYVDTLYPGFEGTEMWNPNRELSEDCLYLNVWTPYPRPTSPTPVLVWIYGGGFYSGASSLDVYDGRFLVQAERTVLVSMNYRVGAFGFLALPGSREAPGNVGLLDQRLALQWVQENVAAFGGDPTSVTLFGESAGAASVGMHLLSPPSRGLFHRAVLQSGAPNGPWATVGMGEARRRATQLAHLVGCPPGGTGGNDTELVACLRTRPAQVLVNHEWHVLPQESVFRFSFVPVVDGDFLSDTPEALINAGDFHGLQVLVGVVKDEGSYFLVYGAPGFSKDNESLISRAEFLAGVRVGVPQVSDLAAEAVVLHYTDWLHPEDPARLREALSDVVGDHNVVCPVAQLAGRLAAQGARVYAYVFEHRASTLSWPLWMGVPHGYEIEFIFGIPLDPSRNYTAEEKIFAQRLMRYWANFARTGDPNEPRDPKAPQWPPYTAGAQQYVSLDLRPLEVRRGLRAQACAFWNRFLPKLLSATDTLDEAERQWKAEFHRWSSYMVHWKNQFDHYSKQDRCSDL

[5] = molecular target: Cholinesterase (Equus caballus) (UniProt P81908); experiment: Pseudo-irreversible inhibition of equine serum BuChE assessed as overall carbamolyation-rate using butyrylthiocholine iodide as substrate preincubated with enzyme for 60 mins prior to substrate addition; type: cell-free
Chain of Cholinesterase (Equus caballus) (P81908 whole entry): as the sequence (P81908 whole entry) above

[6] = molecular target: Cholinesterase (Equus caballus) (UniProt P81908); experiment: Pseudo-irreversible inhibition of equine serum BuChE assessed as carbamolyation-rate using butyrylthiocholine iodide as substrate preincubated with enzyme for 60 mins prior to substrate addition; type: cell-free
[7] = molecular target: Cholinesterase (Equus caballus) (UniProt P81908); experiment: Pseudo-irreversible inhibition of equine serum BuChE assessed as decarbamolyation-rate using butyrylthiocholine iodide as substrate preincubated with enzyme for 60 mins prior to substrate addition; type: cell-free
[8] = n-Octanol/PBS partition coefficient, logP of the compound incubated for 48 hrs at pH 7.4 by shake flask method; type: physicochemical
[9] = molecular target: T1, Cholinesterase; experiment: Pseudo-irreversible inhibition of equine serum BuChE assessed as binding affinity in an equilibrium state using butyrylthiocholine iodide as substrate preincubated with enzyme for 60 mins prior to substrate addition; type: cell-free
[10] = molecular target: T2, Acetylcholinesterase; experiment: Inhibition of human AChE using acetylthiocholine iodide as substrate preincubated with enzyme for 5 mins followed by substrate addition and measured after 5 mins by Ellman's method
[11] = molecular target: Cholinesterase (Homo sapiens, UniProt P06276)
Chain of Cholinesterase (Homo sapiens, UniProt P06276) (P06276 whole entry): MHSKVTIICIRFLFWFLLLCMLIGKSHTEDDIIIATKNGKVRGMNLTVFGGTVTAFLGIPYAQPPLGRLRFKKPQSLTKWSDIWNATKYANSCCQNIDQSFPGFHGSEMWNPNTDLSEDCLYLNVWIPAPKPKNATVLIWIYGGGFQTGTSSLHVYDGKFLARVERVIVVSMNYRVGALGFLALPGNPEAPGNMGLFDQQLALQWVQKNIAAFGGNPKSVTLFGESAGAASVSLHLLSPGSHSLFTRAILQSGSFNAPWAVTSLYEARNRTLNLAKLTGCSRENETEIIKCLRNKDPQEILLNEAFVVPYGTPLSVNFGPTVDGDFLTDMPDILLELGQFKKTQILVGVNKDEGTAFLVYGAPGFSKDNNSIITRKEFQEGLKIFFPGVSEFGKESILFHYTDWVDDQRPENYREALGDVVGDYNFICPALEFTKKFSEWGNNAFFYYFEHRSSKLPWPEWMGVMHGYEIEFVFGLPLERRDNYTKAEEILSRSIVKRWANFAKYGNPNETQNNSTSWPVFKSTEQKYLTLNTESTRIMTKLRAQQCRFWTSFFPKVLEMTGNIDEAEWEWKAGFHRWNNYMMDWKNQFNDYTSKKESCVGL
Description: Inhibition of human serum BuChE using butyrylthiocholine iodide as substrate preincubated with enzyme for 5 mins followed by substrate addition and measured after 5 mins by Ellman's method

[12] = molecular target: Acetylcholinesterase (Electrophorus electricus) (UniProt O42275); experiment: Inhibition of electric eel AChE using acetylthiocholine iodide as substrate at 20 uM preincubated with enzyme for 20 mins followed by substrate addition and measured after 20 mins by Ellman's method; settings: time 40.0 min
Chain of Acetylcholinesterase (Electrophorus electricus) (O42275 24-633 limits assumed): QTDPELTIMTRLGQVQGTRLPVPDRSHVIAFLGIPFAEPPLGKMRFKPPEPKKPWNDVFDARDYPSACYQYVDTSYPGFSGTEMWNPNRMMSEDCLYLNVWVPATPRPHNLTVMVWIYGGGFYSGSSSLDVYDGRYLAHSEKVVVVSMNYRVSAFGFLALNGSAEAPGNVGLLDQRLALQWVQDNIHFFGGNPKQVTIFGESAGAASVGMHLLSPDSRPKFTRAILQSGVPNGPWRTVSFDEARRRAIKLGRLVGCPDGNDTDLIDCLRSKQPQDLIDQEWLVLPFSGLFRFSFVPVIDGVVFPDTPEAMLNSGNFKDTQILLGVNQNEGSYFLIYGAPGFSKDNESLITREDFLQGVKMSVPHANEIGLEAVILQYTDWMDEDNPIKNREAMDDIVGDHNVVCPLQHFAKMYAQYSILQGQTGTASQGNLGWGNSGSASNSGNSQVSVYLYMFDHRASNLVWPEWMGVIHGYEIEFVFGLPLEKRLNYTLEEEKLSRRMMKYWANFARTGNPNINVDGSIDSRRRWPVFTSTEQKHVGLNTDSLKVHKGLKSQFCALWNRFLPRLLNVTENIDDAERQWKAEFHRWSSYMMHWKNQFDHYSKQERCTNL

Structure (SMILES) | inhibition [1] [%] | pIC50 [2] | IC50 [3] | other results
C=C(C)[C@@H]1CCC(C)=C[C@H]1c1c(OC(=O)N(C)Cc2ccccc2)cc(CCCCC)cc1OC(=O)N(C)Cc1ccccc1 | 41.8 | 6.42 | Not Active | 
CCN(C)C(=O)Oc1cccc([C@H](C)N(C)C)c1 | 2.5 |  |  | inhibition [4]: 12.2%; K [5]: 0.26 µM/min; K [6]: 0.3 min⁻¹; K [7]: 4.97 10^3/min
C=C(C)[C@@H]1CCC(C)=C[C@H]1c1c(OC(=O)N(C)CC)cc(CCCCC)cc1OC(=O)N(C)CC | 0.1 | 6.54 | Not Active | logD at 48 h [8]: 2.57
C=C(C)[C@@H]1CCC(C)=C[C@H]1c1c(OC(=O)N2CCOCC2)cc(CCCCC)cc1OC(=O)N1CCOCC1 | 2 | 5.47 | Not Active | 
C=C(C)[C@@H]1CCC(C)=C[C@H]1c1c(O)cc(CCCCC)cc1OC(=O)N(C)Cc1ccccc1 | 21.1 | 7.34 | Not Active | logD at 48 h [8]: 2.2
C=C(C)[C@@H]1CCC(C)=C[C@H]1c1c(O)cc(CCCCC)cc1OC(=O)N1CCCC1 | 4.9 | 6.41 | Not Active | pKd [9]: 6.46; K [5]: 0.94 µM/min; K [6]: 0.33 min⁻¹; K [7]: 5.13 10^3/min
C=C(C)[C@@H]1CCC(C)=C[C@H]1c1c(O)cc(CCCCC)cc1OC(=O)N(C)Cc1ccc(Br)cc1 | 41.8 | 8.14 | Not Active | IC50 [10]: Not Active; pIC50 [11]: 5.67; logD at 48 h [8]: 2.37
C=C(C)[C@@H]1CCC(C)=C[C@H]1c1c(O)cc(CCCCC)cc1OC(=O)N1CCOCC1 | 21.1 | 5.72 | Not Active | 
C=C(C)[C@@H]1CCC(C)=C[C@H]1c1c(O)cc(CCCCC)cc1OC(=O)N(C)Cc1ccc(F)cc1 | 27 | 7.16 | Not Active | 
C=C(C)[C@@H]1CCC(C)=C[C@H]1c1c(O)cc(CCCCC)cc1OC(=O)N(CC)CC | 40.4 | 6.43 |  | inhibition [12]: 28.4%
O=C1O[C@H]([C@@H](O)CO)C(O)=C1O | 86.2 |  |  | 
